From US11046728B2, “Neuroactive steroids, compositions, and uses thereof” (Sage Therapeutics, Inc., priority 2013, dated 2021)

Assays:
[1] = target: TBPS binding, rat brain cortical membranes in the presence of 5 μM GABA; experiment: 35S-TBPS displacement (steroid inhibition of TBPS binding); conditions: read-out: 35S-TBPS Radioligand Displacement (IC50)
Protocol: TBPS binding assays using rat brain cortical membranes in the presence of 5 μM GABA has been described (Gee et al, J. Pharmacol. Exp. Then 1987, 241, 346-353; Hawkinson et al, Mol. Pharmacol. 1994, 46, 977-985). Briefly, cortices are rapidly removed following decapitation of carbon dioxide-anesthetized Sprague-Dawley rats (200-250 g). The cortices are homogenized in 10 volumes of ice-cold 0.32 M sucrose using a glass/teflon homogenizer and centrifuged at 1500×g for 10 min at 4° C. The resultant supernatants are centrifuged at 10,000×g for 20 min at 4° C. to obtain the P2 pellets. The P2 pellets are resuspended in 200 mM NaCl/50 mM Na—K phosphate pH 7.4 buffer and centrifuged at 10,000×g for 10 min at 4° C. This washing procedure is repeated twice and the pellets are resuspended in 10 volumes of buffer. Aliquots (100 μL) of the membrane suspensions are incubated with 3 nM [^35S]-TBPS and 5 μL, aliquots of test drug dissolved in dimethyl sulfoxide (DMSO) (final 0.5%) in the presence of 5 μM GABA. The incubation is brought to a final volume of 1.0 mL with buffer. Nonspecific binding is determined in the presence of 2 μM unlabeled TBPS and ranged from 15 to 25%. Following a 90 min incubation at room temp, the assays are terminated by filtration through glass fiber filters (Schleicher and Schuell No. 32) using a cell harvester (Braudel) and rinsed three times with ice-cold buffer. Filter bound radioactivity is measured by liquid scintillation spectrometry. Non-linear curve fitting of the overall data for each drug averaged for each concentration is done using Prism (GraphPad). […] The concentration of test compound producing 50% inhibition (IC50) of specific binding and the maximal extent of inhibition (Imax) are determined for the individual experiments with the same model used for the overall data and then the means±SEMs of the individual experiments are calculated.
Various compounds are or can be screened to determine their potential as modulators of ^35S-TBPS binding in vitro. These assays are or can be performed in accordance with the above discussed procedures.

GABA receptor α1β2γ2 = target: T1, GABA receptor α1β2γ2 (Homo sapiens, UniProt P14867+P47870); experiment: Patch clamp electrophysiology, Qpatch in Ltk cells; assay type: cell-based; conditions: 10 μM test article, GABA EC20 = 2 μM, read-out: GABA (α1β2γ2) Qpatch in Ltk, % efficacy at 10 μM
T1 construct: expressed in transfected cells; host or cells: LTK cells, stably transfected

male Sprague Dawley rats = experiment: Loss of righting reflex in rats; assay type: in vivo, rat; conditions: intravenous bolus 5 mg/kg
Protocol: The plasma pharmacokinetics and a qualitative assessment of sedation were obtained in male Sprague Dawley rats according to the following procedure. Rats were dosed by intravenous bolus dose (60 seconds) via the foot dorsal vein at 5 mg/kg in an appropriate vehicle. In order to assess sedation, rats were gently restrained by hand to a lateral position for dose administration. […] If the animal was unable to return to an upright position, the time was recorded as the onset of loss of righting reflex (LRR). […] Sluggish or incomplete righting twice consecutively within a 30 second interval qualifies as a loss of righting reflex. After onset of LRR, animals were assessed every 5 minutes in the same manner. Recovery of righting reflex is defined as the ability of a rat to right itself completely within 20 seconds of being placed in dorsal recumbency. The duration of LRR is defined as the time interval between LRR and the return of righting reflex.

T1 sequence (P14867 28-456): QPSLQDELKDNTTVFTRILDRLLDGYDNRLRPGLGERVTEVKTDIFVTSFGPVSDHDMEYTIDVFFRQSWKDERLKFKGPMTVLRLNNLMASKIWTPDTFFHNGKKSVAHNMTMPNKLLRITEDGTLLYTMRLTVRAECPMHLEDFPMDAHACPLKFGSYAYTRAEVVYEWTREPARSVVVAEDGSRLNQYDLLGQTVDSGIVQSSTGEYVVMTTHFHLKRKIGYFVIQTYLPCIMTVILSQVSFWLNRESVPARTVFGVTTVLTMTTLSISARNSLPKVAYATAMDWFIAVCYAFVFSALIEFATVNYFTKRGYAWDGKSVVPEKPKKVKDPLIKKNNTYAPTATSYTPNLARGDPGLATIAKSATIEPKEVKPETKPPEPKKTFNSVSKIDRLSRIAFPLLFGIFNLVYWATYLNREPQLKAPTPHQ
T1 sequence (P47870 25-512 limits assumed): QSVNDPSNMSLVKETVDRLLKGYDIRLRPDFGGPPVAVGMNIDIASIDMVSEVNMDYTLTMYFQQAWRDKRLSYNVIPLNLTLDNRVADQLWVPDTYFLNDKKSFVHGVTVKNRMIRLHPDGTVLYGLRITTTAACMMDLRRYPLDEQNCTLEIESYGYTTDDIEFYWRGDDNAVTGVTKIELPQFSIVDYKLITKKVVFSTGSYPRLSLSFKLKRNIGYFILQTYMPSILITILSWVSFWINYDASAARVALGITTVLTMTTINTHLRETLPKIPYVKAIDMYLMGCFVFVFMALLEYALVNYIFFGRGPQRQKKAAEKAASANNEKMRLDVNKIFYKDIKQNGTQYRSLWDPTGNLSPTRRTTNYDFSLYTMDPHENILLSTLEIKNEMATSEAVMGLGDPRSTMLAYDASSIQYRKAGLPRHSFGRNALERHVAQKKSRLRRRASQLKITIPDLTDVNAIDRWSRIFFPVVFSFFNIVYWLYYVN
T1 sequence (P18507 40-475 partner): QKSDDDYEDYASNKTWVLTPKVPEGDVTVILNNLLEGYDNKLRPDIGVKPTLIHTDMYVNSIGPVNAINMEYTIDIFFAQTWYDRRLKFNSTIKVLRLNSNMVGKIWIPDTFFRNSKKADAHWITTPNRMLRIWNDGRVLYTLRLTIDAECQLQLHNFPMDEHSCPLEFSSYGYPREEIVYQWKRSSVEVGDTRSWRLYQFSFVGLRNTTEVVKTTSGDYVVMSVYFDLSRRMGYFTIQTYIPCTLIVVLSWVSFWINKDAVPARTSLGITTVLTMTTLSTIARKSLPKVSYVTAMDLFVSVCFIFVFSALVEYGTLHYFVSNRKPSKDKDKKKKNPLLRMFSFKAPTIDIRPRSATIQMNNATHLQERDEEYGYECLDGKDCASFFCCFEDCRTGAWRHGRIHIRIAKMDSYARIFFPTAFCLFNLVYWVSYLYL

SMILES | IC50 [1] | Emax at 10 µM (GABA receptor α1β2γ2) | Duration of LRR (min) (male Sprague Dawley rats)
C[C@]12C[C@H](OCCO)[C@@H](O)C[C@@H]1CC[C@@H]1[C@@H]2CC[C@]2(C)[C@@H](C#N)CC[C@@H]12 [Compound 7] | > 500 nM | – | –
CCO[C@H]1C[C@@]2(C)[C@@H](CC[C@@H]3[C@@H]2[C@@H](O)C[C@]2(C)[C@@H](C#N)CC[C@@H]32)C[C@@H]1O [Compound 10] | > 500 nM | > 500% | A (“A” indicates the duration of LRR to be <10 min)
CCO[C@H]1C[C@@]2(C)[C@@H](CC[C@@H]3[C@@H]2[C@@H](O)C[C@]2(C)[C@H](C#N)CC[C@@H]32)C[C@@H]1O [Compound 11] | > 500 nM | – | –
CO[C@H]1C[C@]2(C)[C@@H](C#N)CC[C@H]2[C@@H]2CC[C@H]3C[C@H](O)[C@@H](OC)C[C@]3(C)[C@H]21 [Compound 12] | 100 to 500 nM | > 500% | A (“A” indicates the duration of LRR to be <10 min)
CO[C@H]1C[C@]2(C)[C@H](C#N)CC[C@H]2[C@@H]2CC[C@H]3C[C@H](O)[C@@H](OC)C[C@]3(C)[C@H]21 [Compound 13] | > 500 nM | – | –
C[C@]12CC[C@@H](O)C[C@H]1CC[C@@H]1[C@@H]2[C@@H](O)C[C@]2(C)[C@H](C#N)CC[C@@H]12 [Compound 15] | > 500 nM | – | –
COCCO[C@H]1C[C@@]2(C)[C@@H](CC[C@H]3[C@@H]4CC[C@H](C#N)[C@@]4(C)CC(=O)[C@@H]32)C[C@@H]1O [Compound 17] | > 500 nM | 100 to 500% | –
CCCO[C@H]1C[C@@]2(C)[C@@H](CC[C@@H]3[C@@H]2CC[C@]2(C)[C@H](C#N)CC[C@@H]32)C[C@@H]1O [Compound 18] | > 500 nM | – | –
CCO[C@H]1C[C@@]2(C)[C@@H](CC[C@H]3[C@@H]4CC[C@@H](C#N)[C@@]4(C)CC(=O)[C@@H]32)C[C@@H]1O [Compound 20] | > 500 nM | – | –
CCCO[C@H]1C[C@@]2(C)[C@@H](CC[C@H]3[C@@H]4CC[C@H](C#N)[C@@]4(C)CC(=O)[C@@H]32)C[C@@H]1O [Compound 21] | 10 to 50 nM | > 500% | C (“C” indicates the duration of LRR to be >20 minutes)
CC(C)O[C@H]1C[C@@]2(C)[C@@H](CC[C@H]3[C@@H]4CC[C@H](C#N)[C@@]4(C)CC(=O)[C@@H]32)C[C@@H]1O [Compound 22] | 50 to 100 nM | 100 to 500% | –
CC(C)O[C@H]1C[C@@]2(C)[C@@H](CC[C@H]3[C@@H]4CC[C@H](C#N)[C@@]4(C)CC(=O)[C@@H]32)C[C@@H]1O [Compound 23] | 100 to 500 nM | – | B (“B” indicates the duration of LRR to be 10-20 minutes)
COCCO[C@H]1C[C@@]2(C)[C@@H](CC[C@@H]3[C@@H]2[C@@H](O)C[C@]2(C)[C@@H](C#N)CC[C@@H]32)C[C@@H]1O [Compound 24] | > 500 nM | – | –
CCCO[C@H]1C[C@@]2(C)[C@@H](CC[C@@H]3[C@@H]2[C@@H](O)C[C@]2(C)[C@@H](C#N)CC[C@@H]32)C[C@@H]1O [Compound 26] | 100 to 500 nM | – | B (“B” indicates the duration of LRR to be 10-20 minutes)
C[C@]12CC[C@@H](O)C[C@@H]1CC[C@@H]1[C@@H]2[C@@H](O)C[C@]2(C)[C@@H](C#N)CC[C@@H]12 [Compound 27] | > 500 nM | – | –
CO[C@H]1C[C@]2(C)[C@@H](C#N)CC[C@H]2[C@@H]2CC[C@@H]3C[C@H](O)CC[C@]3(C)[C@H]21 [Compound 28] | 100 to 500 nM | > 500% | A (“A” indicates the duration of LRR to be <10 min)
CC(C)CO[C@H]1C[C@]2(C)C3CC[C@]4(C)[C@@H](C#N)CC[C@H]4[C@@H]3CC[C@H]2C[C@@H]1O (stereo partly shown) [Compound 29] | < 10 nM | > 500% | C (“C” indicates the duration of LRR to be >20 minutes)
C[C@]12C[C@@H](O)C3[C@@H](CC[C@H]4C[C@H](O)CC[C@]34C)[C@@H]1CC[C@@H]2C#N (stereo partly shown) [Compound 30] | > 500 nM | – | –

SMILES | IC50 [1] | Emax at 10 µM (GABA receptor α1β2γ2) | Duration of LRR (min) (male Sprague Dawley rats)
C[C@@H]1C[C@@]2(C)[C@@H](CC[C@@H]3[C@@H]2CC[C@]2(C)[C@@H](C#N)CC[C@@H]32)C[C@@H]1O [Compound 33] | 10 to 50 nM | 100 to 500% | A (“A” indicates the duration of LRR to be <10 min)
CO[C@@H]1C[C@]2(C)[C@@H](C#N)CC[C@H]2[C@@H]2CC[C@H]3C[C@H](O)CC[C@]3(C)C21 (stereo partly shown) [Compound 34] | 100 to 500 nM | – | –
C[C@H]1C[C@@]2(C)[C@@H](CC[C@@H]3[C@@H]2CC[C@]2(C)[C@@H](C#N)CC[C@@H]32)C[C@@H]1O [Compound 40] | 10 to 50 nM | > 500% | B (“B” indicates the duration of LRR to be 10-20 minutes)
CC[C@H]1C[C@@]2(C)[C@@H](CC[C@@H]3[C@@H]2CC[C@]2(C)[C@@H](C#N)CC[C@@H]32)C[C@@H]1O [Compound 41] | < 10 nM | > 500% | C (“C” indicates the duration of LRR to be >20 minutes)
C[C@]12C[C@H](OC3CC3)[C@@H](O)C[C@@H]1CC[C@@H]1[C@@H]2CC[C@]2(C)[C@@H](C#N)CC[C@@H]12 [Compound 42] | > 500 nM | – | –
C[C@]12C[C@H](OC(F)(F)F)[C@@H](O)C[C@@H]1CC[C@@H]1[C@@H]2CC[C@]2(C)[C@@H](C#N)CC[C@@H]12 [Compound 43] | > 500 nM | – | –
CO[C@@H]1C[C@@]2(C)[C@@H](CC[C@@H]3[C@@H]2CC[C@]2(C)[C@@H](C#N)CC[C@@H]32)C[C@@H]1O [Compound 44] | > 500 nM | – | –
CO[C@H]1C[C@]2(C)[C@@H](C#N)CC[C@H]2[C@@H]2CC[C@H]3C[C@H](O)[C@H](C)C[C@]3(C)[C@H]21 [Compound 45] | 50 to 100 nM | > 500% | C (“C” indicates the duration of LRR to be >20 minutes)
CO[C@H]1C[C@]2(C)[C@H](C#N)CC[C@H]2[C@@H]2CC[C@H]3C[C@H](O)[C@H](C)C[C@]3(C)[C@H]21 [Compound 46] | 100 to 500 nM | 10 to 100% | –
C[C@H]1[C@H](O)CC[C@@]2(C)[C@H]1CC[C@@H]1[C@@H]2CC[C@]2(C)[C@@H](C#N)CC[C@@H]12 [Compound 49] | 100 to 500 nM | – | –
CC[C@H]1[C@H](O)CC[C@]2(C)[C@H]3CC[C@]4(C)[C@@H](C#N)CC[C@H]4[C@@H]3CC[C@@H]12 [Compound 50] | > 500 nM | – | –
CO[C@H]1C[C@]2(C)[C@@H](C#N)CC[C@H]2[C@@H]2CC[C@H]3[C@@H](C)[C@H](O)CC[C@]3(C)[C@H]21 [Compound 52] | > 500 nM | – | –
C[C@H]1C[C@@]2(C)[C@@H](CC[C@H]3[C@@H]4CC[C@H](C#N)[C@@]4(C)CC(=O)[C@@H]32)C[C@@H]1O [Compound 53] | 100 to 500 nM | – | –
C[C@H]1C[C@@]2(C)[C@@H](CC[C@@H]3[C@@H]2[C@@H](O)C[C@]2(C)[C@@H](C#N)CC[C@@H]32)C[C@@H]1O [Compound 54] | 100 to 500 nM | – | –
C[C@H]1[C@H](O)CC[C@@]2(C)[C@H]1CC[C@H]1[C@@H]3CC[C@H](C#N)[C@@]3(C)CC(=O)[C@@H]12 [Compound 55] | > 500 nM | – | –
C[C@H]1[C@H](O)CC[C@]2(C)[C@@H]3[C@@H](CC[C@@H]12)[C@@H]1CC[C@H](C#N)[C@@]1(C)C[C@@H]3O [Compound 56] | > 500 nM | – | –
C[C@]12C[C@H](OC3CC3)[C@@H](O)C[C@@H]1CC[C@@H]1[C@@H]2CC[C@]2(C)[C@H](C#N)CC[C@@H]12 [Compound 57] | > 500 nM | – | –
